Assay results as given in the CheMixHub viscosity set.
Several values for one entry are separate records, joined by “and”; a condition that tells them apart may be missing. Equal values may be shown once.

Assay: xn = mol fraction of the nth substance listed

O=CN1CCOCC1 + Cc1cc(C)cc(C)c1
298.15 K, 101.3 kPa
Details	viscosity [mPa·s]
x2 = 0.02898	7.041
x2 = 0.0601	6.315
x2 = 0.08748	5.789
x2 = 0.1453	4.838
x2 = 0.2504	3.53
x2 = 0.3197	2.903
x2 = 0.4426	2.093
x2 = 0.5274	1.701
x2 = 0.6167	1.375
x2 = 0.661	1.264
x2 = 0.7503	1.058
x2 = 0.8348	0.877
x2 = 0.9476	0.731

NCc1ccccc1 + C1COCCO1
303.15 K, 101 kPa
Details	viscosity [mPa·s]
x1 = 0.0802	1.116
x1 = 0.164	1.158
x1 = 0.2516	1.199
x1 = 0.3434	1.238
x1 = 0.4396	1.276
x1 = 0.5406	1.311
x1 = 0.6467	1.343
x1 = 0.7584	1.372
x1 = 0.8759	1.396

NCc1ccccc1 + CCCCN
viscosity [mPa·s], 100 kPa
Details	x2 = 0.1	x2 = 0.2	x2 = 0.3	x2 = 0.4	x2 = 0.5	x2 = 0.6	x2 = 0.7	x2 = 0.8	x2 = 0.9
303.15 K	1.324	1.204	1.068	0.964	0.847	0.748	0.654	0.578	0.513
313.15 K	1.125	1.021	0.929	0.835	0.737	0.642	0.567	0.506	0.45
323.15 K	0.965	0.878	0.791	0.718	0.639	0.567	0.5	0.446	0.396

CCCCCC(C)O (stereo unspecified) + CN(C)C=O
viscosity [mPa·s], 101 kPa
Details	x2 = 0.1086	x2 = 0.153	x2 = 0.24	x2 = 0.3446	x2 = 0.4409	x2 = 0.5599	x2 = 0.6544	x2 = 0.7432	x2 = 0.8428	x2 = 0.9372
298.15 K	4.28	4	3.56	3.15	2.78	2.35	2.01	1.68	1.34	1.03
303.15 K	3.46	3.21	2.85	2.52	2.25	1.92	1.67	1.42	1.17	0.93
308.15 K	2.79	2.6	2.31	2.04	1.83	1.58	1.4	1.22	1.03	0.84
313.15 K	2.32	2.15	1.91	1.69	1.53	1.34	1.2	1.07	0.91	0.77

CC(C)NC(C)C + CCCCCCO
viscosity [mPa·s], 101 kPa
Details	298.15 K	303.15 K	308.15 K
x1 = 0.0503	3.969	3.366	2.859
x1 = 0.1067	3.51	3.018	2.588
x1 = 0.1499	3.195	2.751	2.379
x1 = 0.2041	2.823	2.438	2.114
x1 = 0.253	2.501	2.171	1.901
x1 = 0.3054	2.188	1.9	1.675
x1 = 0.4026	1.665	1.475	1.318
x1 = 0.4986	1.272	1.156	1.046
x1 = 0.6007	0.952	0.883	0.813
x1 = 0.7077	0.718	0.675	0.628
x1 = 0.7994	0.582	0.547	0.514
x1 = 0.8518	0.52	0.492	0.462
x1 = 0.9021	0.471	0.443	0.42
x1 = 0.9545	0.42	0.401	0.378

S=C=S + CCOC(C)=O
298.15 K, 101 kPa
Details	viscosity [mPa·s]
x2 = 0.1445	0.367
x2 = 0.3581	0.389
x2 = 0.6307	0.416

CCCCCCCCCc1ccccc1 + CCCCCCCCCCCC
viscosity [mPa·s], 102 kPa
Details	x1 = 0.1006	x1 = 0.2	x1 = 0.3002	x1 = 0.4001	x1 = 0.5	x1 = 0.5999	x1 = 0.7004	x1 = 0.8064	x1 = 0.8998
293.15 K	1.59	1.69	1.81	1.94	2.09	2.25	2.44	2.66	2.88
303.15 K	1.33	1.41	1.5	1.61	1.72	1.84	1.99	2.15	2.31
313.15 K	1.13	1.2	1.27	1.35	1.44	1.54	1.65	1.78	1.9
323.15 K	0.971	1.03	1.09	1.16	1.23	1.31	1.4	1.5	1.59

O=CN1CCOCC1 + Cc1ccc(C)cc1
viscosity [mPa·s]
Details	298.15 K	303.15 K	313.15 K	323.15 K
101 kPa, x2 = 0.1	5.473	4.774	3.78	3.059
101 kPa, x2 = 0.2	3.996	3.557	2.865	2.378
101 kPa, x2 = 0.3	3.008	2.716	2.243	1.893
101 kPa, x2 = 0.4	2.311	2.107	1.782	1.528
101 kPa, x2 = 0.5	1.837	1.7	1.443	1.263
101 kPa, x2 = 0.6	1.38	1.295	1.098	0.944
101 kPa, x2 = 0.7	1.099	1.018	0.8763	0.7736
101 kPa, x2 = 0.8	0.8844	0.824	0.7219	0.6357
101 kPa, x2 = 0.9	0.731	0.6863	0.6047	0.5387
101.3 kPa, x2 = 0.02757	6.848	–	–	–
101.3 kPa, x2 = 0.05782	6.12	–	–	–
101.3 kPa, x2 = 0.09608	5.439	–	–	–
101.3 kPa, x2 = 0.1653	4.378	–	–	–
101.3 kPa, x2 = 0.2769	3.14	–	–	–
101.3 kPa, x2 = 0.355	2.505	–	–	–
101.3 kPa, x2 = 0.4708	1.842	–	–	–
101.3 kPa, x2 = 0.5471	1.542	–	–	–
101.3 kPa, x2 = 0.6377	1.231	–	–	–
101.3 kPa, x2 = 0.6871	1.093	–	–	–
101.3 kPa, x2 = 0.7745	0.899	–	–	–
101.3 kPa, x2 = 0.8554	0.772	–	–	–
101.3 kPa, x2 = 0.9319	0.668	–	–	–

O=C[C@H](O)[C@@H](O)[C@H](O)[C@H](O)CO + CS(C)=O
viscosity [mPa·s], 101 kPa
Details	x1 = 0.04081	x1 = 0.08276	x1 = 0.1291	x1 = 0.1784
298.15 K	3.819	8.234	21.23	62.65
308.15 K	2.988	5.977	13.9	36.04
318.15 K	2.408	4.525	9.672	22.4

CC(C)NC(C)C + CCCCO
viscosity [mPa·s], 100 kPa
Details	298.15 K	303.15 K	308.15 K
x1 = 0.0499	2.316	2.061	1.793
x1 = 0.1095	2.056	1.834	1.609
x1 = 0.1542	1.88	1.688	1.483
x1 = 0.2062	1.699	1.529	1.353
x1 = 0.25	1.552	1.405	1.251
x1 = 0.2969	1.414	1.285	1.149
x1 = 0.4059	1.129	1.037	0.94
x1 = 0.5062	0.916	0.849	0.777
x1 = 0.6009	0.755	0.707	0.656
x1 = 0.7043	0.62	0.583	0.548
x1 = 0.8059	0.516	0.489	0.467
x1 = 0.8543	0.477	0.451	0.432
x1 = 0.8987	0.444	0.42	0.402
x1 = 0.9489	0.408	0.391	0.374

S=C=S + CO
298.15 K, 101.33 kPa
Details	viscosity [mPa·s]
x1 = 0.0437	0.5883
x1 = 0.0987	0.5838
x1 = 0.1521	0.5538
x1 = 0.2248	0.5669
x1 = 0.2969	0.57
x1 = 0.9488	0.4088

CCCCCCCCCCCCCCCCCC + c1ccccc1
101 kPa, x2 = 0.5
Details	viscosity [mPa·s]
298 K	2.123
318 K	1.501

CC(C)NC(C)C + CC(C)CO
viscosity [mPa·s], 100 kPa
Details	298.15 K	303.15 K	308.15 K
x1 = 0.0559	2.916	2.467	2.005
x1 = 0.1015	2.616	2.232	1.833
x1 = 0.1519	2.295	1.98	1.662
x1 = 0.2069	1.995	1.738	1.459
x1 = 0.2516	1.765	1.549	1.319
x1 = 0.3055	1.507	1.346	1.155
x1 = 0.3944	1.194	1.067	0.931
x1 = 0.4988	0.926	0.837	0.743
x1 = 0.6017	0.73	0.674	0.607
x1 = 0.7131	0.586	0.553	0.509
x1 = 0.8018	0.504	0.485	0.448
x1 = 0.865	0.455	0.441	0.409
x1 = 0.9062	0.433	0.419	0.395
x1 = 0.9423	0.409	0.396	0.379

CC(=O)Nc1ccc(O)cc1 + O
viscosity, 101 kPa
Details	x1 = 0.00011	x1 = 0.000241	x1 = 0.000483	x1 = 0.000727	x1 = 0.000975	x1 = 0.00122
298.15 K	0.8928 mPa·s and 0.8928 mPa·s	0.8964 mPa·s and 0.8964 mPa·s	0.9001 mPa·s and 0.9001 mPa·s	0.9061 mPa·s and 0.9061 mPa·s	0.9121 mPa·s and 0.9121 mPa·s	0.9178 mPa·s and 0.9178 mPa·s
308.15 K	0.7208 mPa·s and 0.7208 mPa·s	0.7243 mPa·s and 0.7243 mPa·s	0.7281 mPa·s and 0.7279 mPa·s	0.7329 mPa·s and 0.7329 mPa·s	0.7378 mPa·s and 0.7378 mPa·s	0.7424 mPa·s and 0.7424 mPa·s
318.15 K	0.598 mPa·s and 0.598 mPa·s	0.6004 mPa·s and 0.6004 mPa·s	0.6053 mPa·s and 0.6053 mPa·s	0.6102 mPa·s and 0.6102 mPa·s	0.6151 mPa·s and 0.6151 mPa·s	0.6197 mPa·s and 0.6197 mPa·s
